From US20250186313A1, “SCALP OR HAIR CARE COMPOSITION COMPRISING NANO-CARBON STRUCTURE” (INBCT Co., Ltd., priority 2022, published 2025)

What was measured:
[1] = system: artificial skin model KeraSkin; assay: Skin irritation test using artificial skin model KeraSkin (MTT); details: negative control (DPBS) = 100%, nano-carbon structure at 0.1 wt % (1 mg/mL)
Procedure: The inventors of the present invention evaluated the skin irritation of nano-carbon structures using the artificial skin model KeraSkin.
Specifically, the inventors of the present invention attempted to predict the possibility of skin irritation by measuring the damage to skin cells that appear while penetrating the stratum corneum of KeraSkin after sample treatment. This experiment used MTT, which is a reagent for measuring the cell viability of test materials, and was performed in compliance with the Cosmetic Risk Assessment Guidelines (Ministry of Food and Drug Safety, 2013) and Cosmetic Toxicity Test Animal Alternative Test Method Guideline V: Skin Irritation Test Method Using a Human Skin Model (Ministry of Food and Drug Safety, 2014).

[2] = system: artificial skin model KeraSkin; assay: Skin corrosion test using artificial skin model KeraSkin (MTT); type: cell-based, human; details: negative control (deionized water) = 100%, nano-carbon structure at 0.1 wt % (1 mg/mL)
Description: The inventors of the present invention evaluated the skin corrosion properties of nano-carbon structures by using the artificial skin model […] is an artificial skin model that reproduces the skin's epithelium using human-derived skin keratinocytes and is manufactured to be similar to real skin in terms of morphology, microstructure and biomarker expression.

[3] = system: artificial skin model KeraSkin; assay: Skin barrier function improvement in SDS-damaged KeraSkin (TEER, TEWL, H&E, immunohistochemistry); type: cell-based, human; details: KeraSkin damaged with 2% SDS, 10 μM retinoic acid or 0.01 wt % NGO
Procedure: After treating the surface of KeraSkin with SDS (sodium dodecyl sulfate), which is an anionic surfactant, to weaken the skin's natural barrier function, a positive control material (10 μM retinoic acid) and a test material (0.01 wt % NGO) were added to the surface for 48 days. In order to evaluate the degree of improvement in the skin barrier function weakened by SDS by 48-hour application treatment, electrical resistance in epithelial tissue was measured by using the Millipore ERS-2 (Millipore, USA) system, and transepidermal water loss was measured by using the GPSKIN BARRIER PRO-II system, and histopathology was performed on four types of skin barrier markers through immunochemical staining.
The epithelial cell layer has developed tight junctions, which are one of the forms of bonding between cells. These tight junctions form physical and chemical barriers, and the strength and integrity of these barriers can be assessed through the degree of electrical resistance across cell layers, which are called “transepithelial electrical resistance (TEER).” As the barrier function is excellent, the transepithelial electrical resistance value increases.
Transdermal moisture is an essential element for the skin to perform its barrier function normally, and when “transepidermal water loss (TEWL)” increases, the enzyme function required for normal exfoliation is damaged, and it is not possible to normally perform the skin barrier functions. Therefore, transepidermal water loss is used as an important physiological indicator during the damage and recovery process of the skin barrier.

CCCCCCCCCCCCOS(=O)(=O)[O-].[Na+] [5% SDS, sodium dodecyl sulfate]
cell viability [1]: 1.6%

[K+].[OH-] [8N KOH, Potassium hydroxide]
cell viability ([2]; applied for 3 minutes): 1.6% | cell viability ([2]; applied for 1 hour): 0.6%

CC1=C(/C=C/C(C)=C/C=C/C(C)=C/C(=O)O)C(C)(C)CCC1 [retinoic acid]
increase of transepithelial electrical resistance compared to the barrier damaged group [3]: 16.1% | reduction of transepidermal water loss compared to the barrier damaged group [3]: 10.8% | transepithelial electrical resistance (TEER) ([3]; 48-hour application, normal 1726.8±85.3, damaged 69.2±2.1): 347.0±15.7 Ω·cm^2 | transepidermal water loss (TEWL) rate compared to the negative control group ([3]; damaged group 133.7±3.2%): 122.9±6.5%
